{"source": "paper PMC3275140", "about": "(Journal of Natural Products, 2011)", "data": [{"system": "tubulin", "assay": "Inhibition of tubulin polymerization", "type": "biochemical", "conditions": "read-out: Inhibition of tubulin polymerization IC50; pure protein assay", "units": {"IC50": "µM"}, "values": [{"smiles": "COc1cc(/C=C\\c2ccc(OC)c(OP(=O)(O)O)c2O)cc(OC)c1OC", "note": "[4a (Z), (Z)-1-[3′,4′,5′-Trimethoxyphenyl]-2-[2″-[hydroxy]-3″-[(disodium)phosphate]-4″-methoxyphenyl] ethene]", "IC50": "> 40"}, {"smiles": "COc1cc(/C=C\\c2ccc(OC)c(OP(=O)(O)O)c2OP(=O)(O)O)cc(OC)c1OC", "note": "[CA1P (Z), reference compound]", "IC50": "> 40"}, {"smiles": "COc1ccc(/C=C\\c2cc(OC)c(OC)c(OC)c2)c(OP(=O)(O)O)c1O", "note": "[8a (Z), (Z)-1-[3′,4′,5′-Trimethoxyphenyl]-2-[2″-[(disodium)phosphate]-3″-[hydroxy]-4″-methoxyphenyl] ethene]", "IC50": "> 40"}]}]}
